Legend:
[1] = biological target: T1, BRD4 (Homo sapiens, UniProt O60885); assay: BRD4 Degradation Flow Cytometry Assay in MV4-11 cells; assay type: cell-based; conditions: MV4-11 cells; for BRD4 degradation (in words): flow cytometry; for Percentage BRD4 degradation vs untreated / BRD4 (% of control): 24 hr; for Percentage BRD4 degradation vs untreated: highest degradation percentage observed at concentrations between 40-1000 nM
T1 construct: endogenous in cells; host or cells: MV4-11
Procedure: Protein Degradation Flow Cytometry
(§1) MV4-11 cells were plated in a 24-well tissue culture plate at a density of 350,000 cells/450 μL/well and incubated in 37° C./5% CO2 for 1 hr. Cells were then treated with compounds at various concentrations and incubated in 37° C./5% CO2 for 24 hr. Cells were harvested, washed once, counted and 200 μL of 1% paraformaldehyde/PBS was added and incubated for 15 min at room temperature. 200 μL of 1×PBS/0.4% Triton X-100 was added and incubated for 15 min at 4° C. Cells were washed three times and resuspended in 50 μL of 1×PBS/0.2% Triton X-100. 2 μL/10^6 cells of anti-BRD4 antibody (ABCAM, #128874) was added and mixed by pipetting up and down. Cells were incubated for 30 min at room temperature in the dark, washed three times and resuspended in 50 μL of 1×PBS/0.2% Triton X-100. Goat anti-rabbit IgG H&L antibody (1:2000 dilution) was added and mixed by pipetting up and down and incubated for 30 min at room temperature in the dark. Finally, cells were washed three times and resuspended in 200 μL of PBS for flow cytometric analysis.

[2] = test system: MV4-11 acute myeloid leukemia xenograft; assay: MV4-11 AML xenograft model in mice; conditions: 25 mg/kg intraperitoneal 1×/day
Procedure: MV4-11 cells were plated in a 96-well tissue culture plate at a density of 4,500 cells/90 μL/well and incubated at 37° C./5% CO2 for 24 hr. Cells were then treated with compounds at various concentrations (a 10-point, 3-fold serial dilution series starting at 20 μM) with a final concentration of 0.5% DMSO/well and then incubated in 37° C./5% CO2 for 72 hr. 10 μL the cell proliferation reagent CCK-8 (WST-8) was added into each well and incubated at 37° C./5% CO2 for 3-4 hr and the absorbance at 450 nm measured with an En Vision Plate Reader.
MV4-11 acute myeloid leukemia and SU-DHL-4 diffuse large B-cell lymphoma (ATCC, #CRL-2957) cells were cultured in medium supplemented with 10% fetal bovine serum at 37° C./5% CO2. 5×10^6 MV-4-11 or 1×10^7 SU-DHL-4 cells were collected and re-suspended in 0.1 mL of serum-free media with Matrigel (1:1 v/v) per mouse for subcutaneous inoculation in isoflurane anesthetized male BALB/c nude or C.B-17 scid mice, respectively (treated in accordance with AAALAC animal welfare guidelines). When the average tumor volumes reached 100-200 mm^3, tumor volume outliers were removed and the remaining animals randomly divided into groups of 6-8 with similar average tumor volumes in each group. […] The appearance and behavior of each mouse was observed and recorded daily. Body weights and tumor volumes were measured and recorded every 2-4 days and the results were expressed as group means±SEM. Pairwise statistical comparisons between groups were performed by one-way ANOVA, and p<0.05 was considered statistically significant.

[3] = test system: MV4-11 cells; assay: MV4-11 Cytotoxicity Assay; assay type: cell-based, human; conditions: Homo sapiens, MV4-11; 72 hr, CCK-8; read-out: MV4-11 cytotoxicity
[4] = biological target: T2, BRD2 (Homo sapiens, UniProt P25440); assay: BET Protein Family Degradation Flow Cytometry Assay (BRD2) in MV4-11 cells; assay type: cell-based; conditions: 24 hr
T2 construct: endogenous in cells; host or cells: MV4-11
Procedure: as §1
(§2) Similar western blotting experiments of for BRD2 and BRD3 were performed in MV4-11 cells using anti-BRD2 (Cell Signaling Technology, #139690) and anti-BRD3 (Cell Signaling Technology, #50818).

[5] = biological target: T3, BRD3 (Homo sapiens, UniProt Q15059); assay: BET Protein Family Degradation Flow Cytometry Assay (BRD3) in MV4-11 cells; assay type: cell-based; conditions: 24 hr
T3 construct: endogenous in cells; host or cells: MV4-11
Procedure: as §1, §2

T2 sequence (P25440 whole entry): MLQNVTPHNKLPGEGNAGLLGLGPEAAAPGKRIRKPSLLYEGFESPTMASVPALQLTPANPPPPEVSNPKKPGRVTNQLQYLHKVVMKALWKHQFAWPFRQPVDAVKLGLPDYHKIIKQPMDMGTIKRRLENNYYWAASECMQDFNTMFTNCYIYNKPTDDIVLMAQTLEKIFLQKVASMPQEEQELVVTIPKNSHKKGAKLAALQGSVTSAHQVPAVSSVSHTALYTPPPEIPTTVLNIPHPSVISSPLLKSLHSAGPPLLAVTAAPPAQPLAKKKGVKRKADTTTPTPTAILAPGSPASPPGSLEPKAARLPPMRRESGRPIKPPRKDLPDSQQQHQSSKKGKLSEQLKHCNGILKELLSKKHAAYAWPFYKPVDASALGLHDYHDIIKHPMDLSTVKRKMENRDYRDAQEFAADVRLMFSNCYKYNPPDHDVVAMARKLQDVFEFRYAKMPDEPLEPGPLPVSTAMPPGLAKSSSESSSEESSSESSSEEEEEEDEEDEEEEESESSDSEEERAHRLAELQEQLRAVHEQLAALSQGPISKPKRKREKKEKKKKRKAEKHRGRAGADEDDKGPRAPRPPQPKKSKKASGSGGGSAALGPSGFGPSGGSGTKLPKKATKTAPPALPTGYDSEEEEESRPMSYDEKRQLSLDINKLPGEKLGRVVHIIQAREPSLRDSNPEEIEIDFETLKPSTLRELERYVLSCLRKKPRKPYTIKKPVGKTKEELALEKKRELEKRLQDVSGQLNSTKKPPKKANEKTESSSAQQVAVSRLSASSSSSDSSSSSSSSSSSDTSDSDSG
T3 sequence (Q15059 whole entry): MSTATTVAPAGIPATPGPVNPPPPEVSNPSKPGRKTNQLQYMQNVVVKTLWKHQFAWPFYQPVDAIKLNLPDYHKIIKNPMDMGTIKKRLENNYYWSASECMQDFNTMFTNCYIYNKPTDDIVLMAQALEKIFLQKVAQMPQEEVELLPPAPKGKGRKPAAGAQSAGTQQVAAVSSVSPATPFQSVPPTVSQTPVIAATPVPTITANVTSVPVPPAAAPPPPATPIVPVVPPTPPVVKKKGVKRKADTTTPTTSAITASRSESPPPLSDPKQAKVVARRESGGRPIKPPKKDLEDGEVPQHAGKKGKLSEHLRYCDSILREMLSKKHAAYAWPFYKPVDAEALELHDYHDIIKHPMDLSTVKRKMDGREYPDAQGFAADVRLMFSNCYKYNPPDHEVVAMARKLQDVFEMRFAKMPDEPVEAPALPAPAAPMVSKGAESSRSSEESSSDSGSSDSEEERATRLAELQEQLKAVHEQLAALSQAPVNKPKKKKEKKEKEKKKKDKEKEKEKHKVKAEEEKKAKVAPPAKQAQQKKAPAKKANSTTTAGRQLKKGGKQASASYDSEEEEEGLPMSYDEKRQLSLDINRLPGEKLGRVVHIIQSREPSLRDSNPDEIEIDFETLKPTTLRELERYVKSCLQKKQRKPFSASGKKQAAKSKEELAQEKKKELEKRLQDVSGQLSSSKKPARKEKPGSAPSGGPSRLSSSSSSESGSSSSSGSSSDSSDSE

(+)-JQ1 [reference compound] was tested, and the “BRD4 degradation (in words)” value [1] was “no substantial BRD4 degradation was observed” and the tumor growth inhibition [2] was “moderate tumor growth inhibition”.
With `CCc1cc(-c2nnc(O)n2-c2ccc(CN3CCN(CC4CCN(C(=O)C[C@@H]5N=C(c6ccc(Cl)cc6)c6c(sc(C)c6C)-n6c(C)nnc65)CC4)CC3)cc2)c(O)cc1O` [Compound 1, 2-((6S)-4-(4-chlorophenyl)-2,3,9-trimethyl-6H-thieno[3,2-f][1,2,4]triazolo[4,3-a][1,4]diazepin-6-yl)-1-(4-((4-(4-(3-(5-ethyl-2,4-dihydroxyphenyl)-5-hydroxy-4H-1,2,4-triazol-4-yl)benzyl)piperazin-1-yl)methyl)piperidin-1-yl)ethanone] the “Percentage BRD4 degradation vs untreated” value [1] was “A (Degradation > 50%)”.
`Cc1cc(-c2nnc(O)n2-c2ccc(CN3CCN(CC4CCN(C(=O)C[C@@H]5N=C(c6ccc(Cl)cc6)c6c(sc(C)c6C)-n6c(C)nnc65)CC4)CC3)cc2)c(O)cc1O` [Compound 9, 2-((6S)-4-(4-chlorophenyl)-2,3,9-trimethyl-6H-thieno[3,2-f][1,2,4]triazolo[4,3-a][1,4]diazepin-6-yl)-1-(4-((4-(4-(3-(2,4-dihydroxy-5-methylphenyl)-5-hydroxy-4H-1,2,4-triazol-4-yl)benzyl)piperazin-1-yl)methyl)piperidin-1-yl)ethanone, trifluoroacetic acid] was tested, and the “Percentage BRD4 degradation vs untreated” value [1] was “B (10% < Degradation = 10-50%)” and the IC50 [3] was less than 100 nM.
With `Cc1sc2c(c1C)C(c1ccc(Cl)cc1)=N[C@@H](CC(=O)NCC(=O)NCC1CCN(C(=O)C3CCN(Cc4ccc(-n5c(O)nnc5-c5cc(C(C)C)c(O)cc5O)cc4)CC3)C1)c1nnc(C)n1-2` (stereo partly drawn) [Compound 47, 2-((S)-4-(4-chlorophenyl)-2,3,9-trimethyl-6H-thieno[3,2-f][1,2,4]triazolo[4,3-a][1,4]diazepin-6-yl)-N-(2-(((1-(1-(4-(3-(2,4-dihydroxy-5-isopropylphenyl)-5-hydroxy-4H-1,2,4-triazol-4-yl)benzyl)piperidine-4-carbonyl)pyrrolidin-3-yl)methyl)amino)-2-oxoethyl)acetamide, trifluoroacetic acid] the “BRD4 (% of control)” value ([1]; 100 nM) was 17.3 % of control, the “BRD4 (% of control)” value ([1]; 300 nM) was 9.6 % of control and the “BRD2 (% of control)” value ([4]; 100 nM) was 81.2 % of control. The “BRD2 (% of control)” value ([4]; 300 nM) was 102.2 % of control, the “BRD3 (% of control)” value ([5]; 100 nM) was 95.0 % of control and the “BRD3 (% of control)” value ([5]; 300 nM) was 91.4 % of control. The IC50 [3] was less than 100 nM.
For `Cc1sc2c(c1C)C(c1ccc(Cl)cc1)=N[C@@H](CC(=O)NCCCCNC(=O)COc1cccc3c1C(=O)N(C1CCC(=O)NC1=O)C3=O)c1nnc(C)n1-2` (stereo partly shown) [dBET1], the “BRD2 (% of control)” value ([4]; 3 nM) was 96.4 % of control, the “BRD2 (% of control)” value ([4]; 10 nM) was 94.9 % of control and the “BRD2 (% of control)” value ([4]; 30 nM) was 55.1 % of control. The “BRD2 (% of control)” value ([4]; 100 nM) was 9.3 % of control, the “BRD2 (% of control)” value ([4]; 300 nM) was 0.5 % of control and the “BRD3 (% of control)” value ([5]; 3 nM) was 89.7 % of control. For the same compound, the “BRD3 (% of control)” value ([5]; 10 nM) was 43.2 % of control, the “BRD3 (% of control)” value ([5]; 30 nM) was 14.5 % of control and the “BRD3 (% of control)” value ([5]; 100 nM) was 1.4 % of control. The “BRD3 (% of control)” value ([5]; 300 nM) was 0.3 % of control.
In the case of `Cc1sc2c(c1C)C(c1ccc(Cl)cc1)=N[C@@H](CC(=O)NCCc1ccc(-n3c(O)nnc3-c3cc(C(C)C)c(O)cc3O)cc1)c1nnc(C)n1-2` [Compound 39, 2-((6S)-4-(4-chlorophenyl)-2,3,9-trimethyl-6H-thieno[3,2-f][1,2,4]triazolo[4,3-a][1,4]diazepin-6-yl)-N-(4-(3-(2,4-dihydroxy-5-isopropylphenyl)-5-hydroxy-4H-1,2,4-triazol-4-yl)phenethyl)acetamide], the “Percentage BRD4 degradation vs untreated” value [1] is reported as “C (Degradation < 10%)” and the IC50 [3] is reported as less than 100 nM.
In the case of `Cc1sc2c(c1C)C(c1ccc(Cl)cc1)=N[C@@H](CC(=O)NCC(=O)NCC1CCN(C(=O)C3CCN(Cc4ccc(-n5c(O)nnc5-c5cc(C(C)C)c(O)cc5O)cc4)CC3)CC1)c1nnc(C)n1-2` [Compound 46, (S)-2-(4-(4-chlorophenyl)-2,3,9-trimethyl-6H-thieno[3,2-f][1,2,4]triazolo[4,3-a][1,4]diazepin-6-yl)-N-(2-(((1-(1-(4-(3-(2,4-dihydroxy-5-isopropylphenyl)-5-hydroxy-4H-1,2,4-triazol-4-yl)benzyl)piperidine-4-carbonyl)piperidin-4-yl)methyl)amino)-2-oxoethyl)acetamide, trifluoroacetic acid], the “Percentage BRD4 degradation vs untreated” value [1] is reported as “A (Degradation > 50%)” and the IC50 [3] is reported as less than 100 nM.
With `CC(=O)N1CCC(CN2CCN(Cc3ccc(-n4c(O)nnc4-c4cc(C(C)C)c(O)cc4O)cc3)CC2)CC1` [HSP90 binder, 1-(4-((4-(4-(3-(2,4-dihydroxy-5-isopropylphenyl)-5-hydroxy-4H-1,2,4-triazol-4-yl)benzyl)piperazin-1-yl)methyl)piperidin-1-yl)ethan-1-one, reference compound] the “Percentage BRD4 degradation vs untreated” value [1] was “C (Degradation < 10%)” and the “BRD4 degradation (in words)” value [1] was “no substantial BRD4 degradation was observed”.
`Cc1sc2c(c1C)C(c1ccc(Cl)cc1)=N[C@@H](CC(=O)N1CCC(N3CCN(Cc4ccc(-n5c(O)nnc5-c5cc(C(C)C)c(O)cc5O)cc4)CC3)CC1)c1nnc(C)n1-2` [Compound 42, (S)-2-(4-(4-chlorophenyl)-2,3,9-trimethyl-6H-thieno[3,2-f][1,2,4]triazolo[4,3-a][1,4]diazepin-6-yl)-1-(4-(4-(4-(3-(2,4-dihydroxy-5-isopropylphenyl)-5-hydroxy-4H-1,2,4-triazol-4-yl)benzyl)piperazin-1-yl)piperidin-1-yl)ethan-1-one, trifluoroacetic acid] was tested, and the IC50 [3] was less than 100 nM.
`CCc1cc(-c2nnc(C(=O)NCCN3CCCCC3)n2-c2ccc(CN3CCN(CC4CCN(C(=O)C[C@@H]5N=C(c6ccc(Cl)cc6)c6c(sc(C)c6C)-n6c(C)nnc65)CC4)CC3)cc2)c(O)cc1O` [Compound 117, (S)-4-(4-((4-((1-(2-(4-(4-chlorophenyl)-2,3,9-trimethyl-6H-thieno[3,2-f][1,2,4]triazolo[4,3-a][1,4]diazepin-6-yl)acetyl)piperidin-4-yl)methyl)piperazin-1-yl)methyl)phenyl)-5-(5-ethyl-2,4-dihydroxyphenyl)-N-(2-(piperidin-1-yl)ethyl)-4H-1,2,4-triazole-3-carboxamide, trifluoroacetic acid] showed an IC50 [3] of less than 100 nM.
`Cc1sc2c(c1C)C(c1ccc(Cl)cc1)=N[C@@H](CC(=O)N(C)[C@H](C)c1ccc(CN3CCN(Cc4ccc(-n5c(O)nnc5-c5cc(C(C)C)c(O)cc5O)cc4)CC3)cc1)c1nnc(C)n1-2` [Compound 92, 2-((S)-4-(4-chlorophenyl)-2,3,9-trimethyl-6H-thieno[3,2-f][1,2,4]triazolo[4,3-a][1,4]diazepin-6-yl)-N—((R)-1-(4-((4-(4-(3-(2,4-dihydroxy-5-isopropylphenyl)-5-hydroxy-4H-1,2,4-triazol-4-yl)benzyl)piperazin-1-yl)methyl)phenyl)ethyl)-N-methylacetamide, trifluoroacetic acid] showed an IC50 [3] of 100 to 1000 nM.

— US12540143B2, “Methods and compositions for targeted protein degradation” (Ranok Therapeutics (Hangzhou) Co. Ltd., priority 2019, dated 2026)
